According to patent US20170348337A1, “MULTIFUNCTIONAL MEMBRANE-ACTIVE AMINOGLYCOSIDE-PEPTIDE CONJUGATES” (priority 2014, published 2017):
≈ marks a conversion by molar mass, not a printed value. Read-outs that look alike come from different tables or passages of the source. Residues, ends and D or L forms follow the SMILES beside them. No end group written: not given here. Tobramycin = aminoglycoside, conjugated at the peptide N-terminus; Neomycin = aminoglycoside, conjugated at the peptide N-terminus

Columns and labels:
[1] = tested on: E. coli persisters; test: E. coli persister killing assay, pentobra plus adjuvant; format: cell-based; conditions: 10 mM arabinose; 1.5 hours
Protocol: Bacterial persisters were prepared essentially as described above, by growing an E. coli culture for 18-24 hours, at which point 100 μg/ml ampicillin was added for a 4-hour incubation to kill non-persisters. The cells were washed with M9 salts without carbon source, and subsequently diluted with M9 salts to an appropriate cell count for the killing assay. Approximately 10^6 E. coli cells per well were placed in a total volume of 100 μl in a 96-well plate on a shaker at 37° C. for 1.5 hours in the presence of each the following, respectively: Pentobra, Pentobra-plus-glucose (as adjuvant), tobramycin, tobramycin-plus-glucose (as adjuvant). A concentration series was used with 50, 25, 12.5, 6.25 and 0 μM for pentobra or tobramycin, and correspondingly 10, 5, 2.5, 1.25 and 0 mM for glucose. Incubation, dilution, and plating for colony assay determination were as described above. In a separate experiment, approximately 10^6 E. coli cells per well were placed in a total volume of 100 μl in a 96-well plate at 37° C. for 1.5 hours in the presence of each the following, respectively: pentobra, pentobra-plus-10 mM arabinose (as adjuvant), tobramycin, tobramycin-plus-10 mM arabinose (as adjuvant).
Persister cells were isolated and experiments to test for bactericidal activity were performed as described in Example 7 above.

[2] = tested on: E. coli; test: antimicrobial activity (MIC) of P-L-A conjugates; format: cell-based
[3] = tested on: E. coli; test: microbe, parasite or virus in culture; format: cell-based
Text: (§1) Pentobra was screened against a broad panel of microbial pathogens, including strains of E. coli, MRSA, Klebsiella (Kleb), Acinetobacter (AcB), Vancomycin-Sensitive Enterococci (VSE) and Vancomycin-Resistant Enterococci (VRE), and specifically including E. faecalis samples. […] The experimenter reported the minimum inhibitory concentration (MIC) in mass units per unit volume (μg/mL) for each compound, and MIC data were converted into molar concentrations (μM) due to the large difference between the molecular weight of tobramycin (467.5 g/mol) and Pentobra (2277 g/mol).

[4] = tested on: Vancomycin-Resistant Enterococci (VRE); test: microbe, parasite or virus in culture; format: cell-based
Text: as §1

[5] = tested on: Klebsiella (Kleb); test: microbe, parasite or virus in culture; format: cell-based; conditions: isolate Kleb, W6921701-1
Text: as §1

[6] = tested on: MRSA; test: microbe, parasite or virus in culture; format: cell-based; conditions: isolate MRSA
Text: as §1

[7] = tested on: Acinetobacter (AcB); test: microbe, parasite or virus in culture; format: cell-based; conditions: isolate AcB, PM1434
Text: as §1

[8] = tested on: Vancomycin-Sensitive Enterococci (VSE); test: organism not typed; format: cell-based
Text: as §1

[9] = tested on: Peripheral Blood Mononuclear Cells (PBMCs); test: cell viability assay (MTT section, CellTiter-GLO); format: cell-based, human; conditions: 26 μM; over 72 hr
Protocol: (§2) Cell proliferation experiments were performed in 96-well plates (5 replicates). 26 μM of Pentobra and Tobramycin treatments were initiated at 24 hours post-seeding for 3 days. Stocks and dilutions of PLX4032/vemurafenib (Plexxikon) and AZD6244/selumetenib (Selleck Chemicals) were made in dimethyl sulfoxide (DMSO). Three cell types (PBMCs, Keratinocytes and Sebocytes cell lines) were tested. Cells were quantified using CellTiter-GLO Luminescence (Promega) following the manufacturer's recommendations.

[10] = tested on: sebocytes; test: cell viability assay (MTT section, CellTiter-GLO); format: cell-based, human; conditions: 26 μM; over 72 hr
Protocol: as §2

[11] = tested on: keratinocytes; test: cell viability assay (MTT section, CellTiter-GLO); format: cell-based, human; conditions: 26 μM; over 72 hr
Protocol: as §2

[12] = tested on: P. aeruginosa; test: antimicrobial activity (MIC) of P-L-A conjugates; format: cell-based; conditions: for MIC: stationary
[13] = tested on: NIH/3T3 cells; test: CellTox Green cytotoxicity assay; format: cell-based, mouse; conditions: concentrations up to 100 μM; 8 h incubation
Protocol: CellTox™ Green assay. The cytotoxicity of Pentobra was investigated on NIH/3T3 cells (ATCC) using CellTox™ Green assay (Promega, United States of America). Cells were seeded in a 96 well plate at a concentration of 2.5×10^3 cells/well. 100 μL of DMEM media were added to each well containing 0.2% CellTox green dye and varying concentrations of Pentobra, CPP or tobramycin and incubated for 8 and 24 h before the plate was read using an excitation wavelength of 485 nm and emission filter of 535 nm on a microplate reader (Beckman Coulter, DTX 880 Multimode Detector). A lysis solution, known to be toxic to the cells, was used as a positive control which represented the maximum dead cell signal obtainable from non-proliferating cells. The untreated cell population represented the maximal negative control signal obtainable at the end of an exposure period. The fluorescence values were normalized (from positive and negative controls) and converted to corresponding viability values.

[14] = tested on: NIH/3T3 cells; test: LIVE/DEAD viability/cytotoxicity assay; conditions: 100 μM; 8 h
Protocol: The effect of Pentobra on the plasma membrane integrity was investigated on NIH/3T3 cells using the Live/Dead® Viability/Cytotoxicity Kit (Molecular Probes). Briefly, 50,000 cells/well were incubated in a 24-well plate and treated with 100 μM of tobramycin, Pen peptide or Pentobra for 8 h at 37° C. Then, the cells were stained with 100 μL of the live/Dead assay reagents (2 μM calcein and 4 μM ethidium homodimer), and incubated at 37° C. for 20 min. The labeled cells were counted using a Zeiss Axiovert Observer Z1 inverted fluorescent microscope (at least 160 cells were counted for each treatment).
In addition, the effect of Pentobra on the cell membrane integrity was evaluated using the LIVE/DEAD® cell viability assay. This assay simultaneously determined intracellular esterase activity and plasma membrane integrity using two distinct dyes: a) calcein, a membrane permeable polyanionic dye that must be hydrolyzed by intracellular esterases (dead cells lack active esterases) to produce a green fluorescence and b) ethidium homodimer, a membrane impermeable red fluorescent dye that can only penetrate cells with compromised membranes.

[15] = tested on: S. aureus; test: antimicrobial activity (MIC) of P-L-A conjugates; format: cell-based
[16] = cited from earlier work

O=C[C@@H](O)[C@H](O)[C@H](O)CO [Arabinose, arabinose]
effect on killing potency of pentobra [1]: enhanced pentobra, but to a lesser extent

CC[C@H](C)[C@H](NC(=O)[C@H](CCCCN)NC(=O)[C@@H](NC(=O)[C@H](CCC(N)=O)NC(=O)[C@H](CCCNC(=N)N)NC(=O)CCC(=O)OC[C@H]1O[C@H](O[C@@H]2[C@@H](O)[C@H](O[C@H]3O[C@H](CN)[C@@H](O)C[C@H]3N)[C@@H](N)C[C@H]2N)[C@H](O)[C@@H](N)[C@@H]1O)[C@@H](C)CC)C(=O)N[C@@H](Cc1c[nH]c2ccccc12)C(=O)N[C@@H](Cc1ccccc1)C(=O)N[C@@H](CCC(N)=O)C(=O)N[C@@H](CC(N)=O)C(=O)N[C@@H](CCCNC(=N)N)C(=O)N[C@@H](CCCNC(=N)N)C(=O)N[C@@H](Cc1c[nH]c2ccccc12)C(=O)O [Pentobra] (HELM PEPTIDE1{[NC[C@H]1O[C@H](O[C@H]2[C@H](O)[C@@H](O[C@H]3O[C@H](COC(=O)CCC(=O)[*:2])[C@@H](O)[C@H](N)[C@H]3O)[C@H](N)C[C@@H]2N)[C@H](N)C[C@@H]1O].R.Q.I.K.I.W.F.Q.N.R.R.W}$$$$V2.0)
MIC (μM) E. coli (mid-log) [2]: 6.25 μM | MIC ([3]; isolate ATCC 25922, Ecoli (second entry)): 4 µM (≈ 9.12 µg/mL) | MIC ([3]; isolate ATCC Ecoli, 25922 (first entry)): 2 µM (≈ 4.56 µg/mL) | MIC ([3]; isolate Ecoli,YD461): 7 µM (≈ 16 µg/mL) | MIC ([4]; isolate 24670, VRE^? (second entry)): 14 µM (≈ 31.9 µg/mL) | MIC ([4]; isolate F6541102, VRE): >56 µM | MIC ([4]; isolate H6926031, VRE*): 14 µM (≈ 31.9 µg/mL) | MIC ([4]; isolate M6865034, VRE): 14 µM (≈ 31.9 µg/mL) | MIC ([4]; isolate S3899836, VRE^? (second entry)): 14 µM (≈ 31.9 µg/mL) | MIC ([4]; isolate VRE, 24670): 14 µM (≈ 31.9 µg/mL) | MIC ([4]; isolate VRE, S3899836): 14 µM (≈ 31.9 µg/mL) | MIC [5]: 7 µM (≈ 16 µg/mL) | MIC ([6]; F2806774): 56 µM (≈ 128 µg/mL) | MIC ([6]; H2867813): >56 µM | MIC [7]: 7 µM (≈ 16 µg/mL) | MIC ([8]; isolate S4895552, VSE, LZD-R): 14 µM (≈ 31.9 µg/mL) | MIC ([8]; isolate W7171143,VSE): 56 µM (≈ 128 µg/mL) | MIC ([8]; isolate W7214342,VSE): 28 µM (≈ 63.9 µg/mL) | MIC ([8]; isolate X4540299, VSE): 14 µM (≈ 31.9 µg/mL) | viability [9]: did not affect the viability | viability [10]: did not affect the viability | viability [11]: did not affect the viability | MIC (μM) P. aeruginosa (mid-log) [12]: 6.25-12.5 μM | MIC [12]: 25 µM (≈ 57 µg/mL) | cytotoxic effect [13]: did not show any cytotoxic effect | cytotoxicity (percentage of red stained cells) [14]: no statistical difference in cytotoxicity | plasma membrane integrity of eukaryotic cells [14]: did not induce any loss of plasma membrane integrity | MIC (μM) S. aureus (mid-log) [15]: 25 μM

NCC[C@H](O)C(=O)N[C@@H]1C[C@H](N)[C@@H](O[C@H]2O[C@H](CN)[C@@H](O)[C@H](O)[C@H]2O)[C@H](O)[C@H]1O[C@H]1O[C@H](CO)[C@@H](O)[C@H](N)[C@H]1O [amikacin]
octanol→water partition coefficient Log P ([16]; aminoglycosides): −3.34

NC[C@H]1O[C@H](O[C@H]2[C@H](O)[C@@H](O[C@H]3O[C@H](CO)[C@@H](O)[C@H](N)[C@H]3O)[C@H](N)C[C@@H]2N)[C@H](O)[C@@H](O)[C@@H]1O [kanamycin]
octanol→water partition coefficient Log P ([16]; aminoglycosides): −4.55

NC[C@@H]1O[C@H](O[C@H]2[C@@H](O)[C@H](O[C@@H]3[C@@H](O)[C@H](N)C[C@H](N)[C@H]3O[C@H]3O[C@H](CO)[C@@H](O)[C@H](O)[C@H]3N)O[C@@H]2CO)[C@H](N)[C@@H](O)[C@@H]1O [paromomycin]
octanol→water partition coefficient Log P ([16]; aminoglycosides): −3.27

[H]/N=C(/N)N[C@H]1[C@H](O)[C@@H](O)[C@H](O[C@@H]2O[C@@H](C)[C@](O)(C=O)[C@H]2O[C@@H]2O[C@@H](CO)[C@H](O)[C@@H](O)[C@@H]2NC)[C@@H](N/C(N)=N\[H])[C@@H]1O [streptomycin]
octanol→water partition coefficient Log P ([16]; aminoglycosides): −2.53

OC[C@H]1O[C@@](CO)(O[C@H]2O[C@H](CO)[C@@H](O)[C@H](O)[C@H]2O)[C@@H](O)[C@@H]1O [sucrose]
octanol→water partition coefficient Log P ([16]; sugars, Mazzobre et. al. 2005): −3.30

OC[C@H]1O[C@H](O[C@H]2O[C@H](CO)[C@@H](O)[C@H](O)[C@H]2O)[C@H](O)[C@@H](O)[C@@H]1O [trehalose]
octanol→water partition coefficient Log P ([16]; sugars, Mazzobre et. al. 2005): −3.77

Amphi Pentobra: Tobramycin-GWIRNQFRKIWQR [SEQ ID NO: 81], N-terminal conjugation
MIC (μM) E. coli (mid-log) [2]: 3.12 μM | MIC (μM) P. aeruginosa (mid-log) [12]: 12.5 μM

Neo13: Neomycin-GFHGVKNLARRIL [SEQ ID NO: 109], N-terminal conjugation
MIC (μM) P. aeruginosa (mid-log) [12]: 12.5 μM | MIC [12]: 50 µM | MIC (μM) S. aureus (mid-log) [15]: 12.5 μM

NeoGP11: Neomycin-GPWWFKWPRLI [SEQ ID NO: 123], N-terminal conjugation
MIC (μM) P. aeruginosa (mid-log) [12]: 12.5 μM | MIC [12]: 50 µM

RQIKIWFQNRRW [Pen peptide]
cytotoxicity (percentage of red stained cells) [14]: no statistical difference in cytotoxicity

Reverse Pentobra: Tobramycin-GWRRNQFWIKIQR [SEQ ID NO: 95], N-terminal conjugation
MIC (μM) E. coli (mid-log) [2]: 3.12 μM | MIC (μM) P. aeruginosa (mid-log) [12]: 12.5 μM

TobrGW12: Tobramycin-GWRNQIRKGWQR [SEQ ID NO: 135], N-terminal conjugation
MIC (μM) P. aeruginosa (mid-log) [12]: 6.25 μM | MIC [12]: 12.5 µM

gentamycin
octanol→water partition coefficient Log P ([16]; aminoglycosides): −2.47

neomycin
MIC [12]: 12.5 µM | octanol→water partition coefficient Log P ([16]; aminoglycosides): −3.65 | MIC (μM) S. aureus (mid-log) [15]: 1.56 μM
